{"source": "patent US20250011881A1", "about": "“MYC-HSF1 DUAL AMPLIFICATION AS A BIOMARKER FOR CANCER TREATMENT” (The Trustees of Indiana University, priority 2023, published 2025)", "tested_on": "ovarian cancer cells with (OVCAR8, OVCAR4) or without (OVSAHO, CAOV3) MYC-HSF1 amplification", "assay": "Epigenetic inhibitor drug screen, cell viability (Cell Titer Blue)", "assay_type": "cell-based", "key": {"[1]": {"conditions": "10 uM, 48 hrs, average relative cell viability (vs 1% DMSO) of non-amplified cells (OVSAHO, CAOV3) minus that of MYC-HSF1 amplified cells (OVCAR8, OVCAR4), positive = greater response in amplified cells"}, "[2]": {"conditions": "10 uM, 48 hrs, average relative cell viability (vs 1% DMSO) of non-amplified cells (OVSAHO, CAOV3) minus that of MYC-HSF1 amplified cells (OVCAR8, OVCAR4), positive = greater response in amplified cells, 10 µM"}}, "note": "Values joined by “and” are separate entries in the source; they are usually repeats but may differ in a detail not shown here. Identical values can stand only once. Counter-ions that a name gives are not always drawn. Like-named read-outs stand apart in the source and are kept apart here.", "data": [{"smiles": "CC(C)N(CCCNC(=O)Nc1ccc(C(C)(C)C)cc1)C[C@H]1O[C@@H](n2ccc3c(N)ncnc32)[C@H](O)[C@@H]1O.O=CO", "note": "[EPZ004777 (formate)]", "values": [{"measurement": "Non Amp - AMP (POC) 10 uM", "setting": "[1]", "result": 10.91, "unit": "POC"}]}, {"smiles": "CC(C)N(CCCNC(=O)Nc1ccc(C(C)(C)C)cc1)C[C@H]1O[C@@H](n2ccc3c(N)ncnc32)[C@H](O)[C@@H]1O", "note": "[EPZ004777]", "values": [{"measurement": "Non Amp - AMP (POC) 10 uM", "setting": "[1]", "result": 6.632, "unit": "POC"}]}, {"smiles": "Cc1cc(C)c(CNC(=O)c2cc(-c3ccc(CN4CCOCC4)cc3)cc3c2cnn3C2CCCC2)c(=O)[nH]1", "note": "[EPZ005687]", "values": [{"measurement": "Non Amp - AMP (POC) 10 uM", "setting": "[1]", "result": 15.13, "unit": "POC"}]}, {"smiles": "CCN(c1cc(-c2ccc(CN3CCOCC3)cc2)cc(C(=O)NCc2c(C)cc(C)[nH]c2=O)c1C)C1CCOCC1", "note": "[EPZ6438]", "values": [{"measurement": "Non Amp - AMP (POC) 10 uM", "setting": "[2]", "result": 8.683, "unit": "POC"}, {"measurement": "Non Amp - AMP (POC) 10 uM", "setting": "10 uM, 48 hrs, average relative cell viability (vs 1% DMSO) of non-amplified cells (OVSAHO, CAOV3) minus that of MYC-HSF1 amplified cells (OVCAR8, OVCAR4), positive = greater response in amplified cells, listed as EPZ-6438, 10 µM", "result": 3.862, "unit": "POC"}]}, {"smiles": "CC(C)(CCCCCC(O)CCCCCC(C)(C)C(=O)O)C(=O)O", "note": "[ETC-1002]", "values": [{"measurement": "Non Amp - AMP (POC) 10 uM", "setting": "[1]", "result": "−2.506", "unit": "POC"}]}, {"smiles": "NC(=O)C1CCCc2c1[nH]c1ccc(Cl)cc21", "note": "(stereo not shown) [EX 527 (SEN0014196)]", "values": [{"measurement": "Non Amp - AMP (POC) 10 uM", "setting": "[1]", "result": "−0.5892", "unit": "POC"}]}, {"smiles": "O=c1oc2c(O)c(O)cc3c(=O)oc4c(O)c(O)cc1c4c23", "note": "[Ellagic acid]", "values": [{"measurement": "Non Amp - AMP (POC) 10 uM", "setting": "[1]", "result": 13.8, "unit": "POC"}]}, {"smiles": "CCN(CC)C(=O)/C(C#N)=C/c1cc(O)c(O)c([N+](=O)[O-])c1", "note": "[Entacapone]", "values": [{"measurement": "Non Amp - AMP (POC) 10 uM", "setting": "[1]", "result": "−6.777", "unit": "POC"}]}, {"smiles": "Cn1cc(C2=C(c3cn(C4CCN(Cc5ccccn5)CC4)c4ccccc34)C(=O)NC2=O)c2ccccc21", "note": "[Enzastaurin (LY317615), Enzastaurin]", "values": [{"measurement": "Non Amp - AMP (POC) 10 uM", "setting": "[1]", "result": 13.08, "unit": "POC"}]}, {"smiles": "O=C(O)CNC(=O)c1nc(Cl)c2ccccc2c1O", "note": "[FG2216]", "values": [{"measurement": "Non Amp - AMP (POC) 10 uM", "setting": "[1]", "result": "−1.816", "unit": "POC"}]}, {"smiles": "Cc1nc(C(=O)NCC(=O)O)c(O)c2ccc(Oc3ccccc3)cc12", "note": "[FG-4592 (ASP1517)]", "values": [{"measurement": "Non Amp - AMP (POC) 10 uM", "setting": "[1]", "result": "−0.1816", "unit": "POC"}]}, {"smiles": "O=S(=O)(c1cccc2cnccc12)N1CCCNCC1", "note": "[Fasudil (HA-1077) HCl, Fasudil]", "values": [{"measurement": "Non Amp - AMP (POC) 10 uM", "setting": "[1]", "result": 15.8, "unit": "POC"}]}, {"smiles": "O=c1c(O)c(-c2ccc(O)c(O)c2)oc2cc(O)ccc12", "note": "[Fisetin]", "values": [{"measurement": "Non Amp - AMP (POC) 10 uM", "setting": "[1]", "result": 10.02, "unit": "POC"}]}, {"smiles": "O=C(O)c1ccccc1Nc1cccc(C(F)(F)F)c1", "note": "[Flufenamic acid]", "values": [{"measurement": "Non Amp - AMP (POC) 10 uM", "setting": "[1]", "result": "−4.318", "unit": "POC"}]}, {"smiles": "CS(=O)(=O)c1ccc(-c2nnc(/C=C/c3nnc(-c4ccc(C#N)cc4)o3)n2-c2ccccc2Cl)nc1", "note": "[G007-LK]", "values": [{"measurement": "Non Amp - AMP (POC) 10 uM", "setting": "[1]", "result": "−1.13", "unit": "POC"}]}, {"smiles": "CN(C)CCCn1cc(C2=C(c3c[nH]c4ccccc34)C(=O)NC2=O)c2ccccc21", "note": "[GF 109203X]", "values": [{"measurement": "Non Amp - AMP (POC) 10 uM", "result": 3.766, "unit": "POC"}]}, {"smiles": "N#Cc1ccc(COc2ccc(-c3cccc4nc(NC(=O)C5CC5)nn34)cc2)cn1", "note": "[GLPG0634 analogue]", "values": [{"measurement": "Non Amp - AMP (POC) 10 uM", "setting": "[1]", "result": "−7.702", "unit": "POC"}]}, {"smiles": "O=C(Nc1nc2cccc(-c3ccc(CN4CCS(=O)(=O)CC4)cc3)n2n1)C1CC1", "note": "[GLPG0634]", "values": [{"measurement": "Non Amp - AMP (POC) 10 uM", "setting": "[1]", "result": 15.53, "unit": "POC"}]}, {"smiles": "COc1cc(C(=O)N2CC[C@@H](O)[C@@H](N)C2)cc2nc(-c3cc4ccccc4n3CC3CC3)n(C)c12.Cl", "note": "[GSK484 (hydrochloride)]", "values": [{"measurement": "Non Amp - AMP (POC) 10 uM", "setting": "[1]", "result": 0.3153, "unit": "POC"}]}, {"smiles": "Cc1cc(C)c(CNC(=O)c2cc(-c3ccc(N4CCN(C)CC4)nc3)cc3c2c(C)cn3C(C)C)c(=O)[nH]1", "note": "[GSK503]", "values": [{"measurement": "Non Amp - AMP (POC) 10 uM", "setting": "[1]", "result": "−0.09843", "unit": "POC"}]}, {"smiles": "CCn1c(-c2nonc2N)nc2c(C#CC(C)(C)O)ncc(OC[C@H]3CCCNC3)c21", "note": "[GSK690693]", "values": [{"measurement": "Non Amp - AMP (POC) 10 uM", "setting": "[1]", "result": "−7.029", "unit": "POC"}]}, {"smiles": "CC(=O)N1c2ccc(-c3ccc(C(=O)O)cc3)cc2[C@H](Nc2ccc(Cl)cc2)C[C@@H]1C", "note": "[GSK1324726A]", "values": [{"measurement": "Non Amp - AMP (POC) 10 uM", "setting": "[1]", "result": 0.1295, "unit": "POC"}]}, {"smiles": "O=C(O)c1ccc(CN2CCC(CN[C@@H]3C[C@H]3c3ccccc3)CC2)cc1", "note": "[GSK2879552]", "values": [{"measurement": "Non Amp - AMP (POC) 10 uM", "setting": "[2]", "result": "13.47 POC and 12.35 POC"}]}, {"smiles": "COc1ccccc1C(=O)Nc1cc2c(cc1N1CCCCC1)n(C)c(=O)n2C", "note": "[GSK 5959]", "values": [{"measurement": "Non Amp - AMP (POC) 10 uM", "setting": "[1]", "result": 10.99, "unit": "POC"}]}, {"smiles": "O=C(O)CCNc1cc(N2CCc3ccccc3CC2)nc(-c2ccccn2)n1", "note": "[GSK J1]", "values": [{"measurement": "Non Amp - AMP (POC) 10 uM", "result": 1.38, "unit": "POC"}]}, {"smiles": "O=C(O)CCNc1cc(N2CCc3ccccc3CC2)nc(-c2cccnc2)n1", "note": "[GSK J2]", "values": [{"measurement": "Non Amp - AMP (POC) 10 uM", "setting": "[1]", "result": 0.5701, "unit": "POC"}]}, {"smiles": "CCOC(=O)CCNc1cc(N2CCc3ccccc3CC2)nc(-c2ccccn2)n1.Cl", "note": "[GSK J4 HCl]", "values": [{"measurement": "Non Amp - AMP (POC) 10 uM", "setting": "[2]", "result": "−10.21", "unit": "POC"}, {"measurement": "Non Amp - AMP (POC) 10 uM", "setting": "10 uM, 48 hrs, average relative cell viability (vs 1% DMSO) of non-amplified cells (OVSAHO, CAOV3) minus that of MYC-HSF1 amplified cells (OVCAR8, OVCAR4), positive = greater response in amplified cells, listed as GSK-J4 (hydrochloride), 10 µM", "result": "−13.06", "unit": "POC"}]}, {"smiles": "O=C1Nc2cc(Br)ccc2/C1=C1/Nc2ccccc2/C1=N\\O", "note": "[GSK-3 Inhibitor IX (BIO)]", "values": [{"measurement": "Non Amp - AMP (POC) 10 uM", "setting": "[1]", "result": "−1.008", "unit": "POC"}]}, {"smiles": "O=C(O)CCNc1cc(N2CCc3ccccc3CC2)nc(-c2ccccn2)n1", "note": "[GSK-J1 (sodium salt)]", "values": [{"measurement": "Non Amp - AMP (POC) 10 uM", "setting": "[1]", "result": 8.487, "unit": "POC"}]}]}
